# Patent EP3807270B1, “NOVEL HETEROARYL HETEROCYCLYL COMPOUNDS FOR THE TREATMENT OF AUTOIMMUNE DISEASE” (F. Hoffmann-La Roche AG, priority 2018, dated 2019)
# Molecular target: T1, hTLR7 (Homo sapiens, UniProt Q9NYK1)
# T1 sequence (Q9NYK1 27-1049): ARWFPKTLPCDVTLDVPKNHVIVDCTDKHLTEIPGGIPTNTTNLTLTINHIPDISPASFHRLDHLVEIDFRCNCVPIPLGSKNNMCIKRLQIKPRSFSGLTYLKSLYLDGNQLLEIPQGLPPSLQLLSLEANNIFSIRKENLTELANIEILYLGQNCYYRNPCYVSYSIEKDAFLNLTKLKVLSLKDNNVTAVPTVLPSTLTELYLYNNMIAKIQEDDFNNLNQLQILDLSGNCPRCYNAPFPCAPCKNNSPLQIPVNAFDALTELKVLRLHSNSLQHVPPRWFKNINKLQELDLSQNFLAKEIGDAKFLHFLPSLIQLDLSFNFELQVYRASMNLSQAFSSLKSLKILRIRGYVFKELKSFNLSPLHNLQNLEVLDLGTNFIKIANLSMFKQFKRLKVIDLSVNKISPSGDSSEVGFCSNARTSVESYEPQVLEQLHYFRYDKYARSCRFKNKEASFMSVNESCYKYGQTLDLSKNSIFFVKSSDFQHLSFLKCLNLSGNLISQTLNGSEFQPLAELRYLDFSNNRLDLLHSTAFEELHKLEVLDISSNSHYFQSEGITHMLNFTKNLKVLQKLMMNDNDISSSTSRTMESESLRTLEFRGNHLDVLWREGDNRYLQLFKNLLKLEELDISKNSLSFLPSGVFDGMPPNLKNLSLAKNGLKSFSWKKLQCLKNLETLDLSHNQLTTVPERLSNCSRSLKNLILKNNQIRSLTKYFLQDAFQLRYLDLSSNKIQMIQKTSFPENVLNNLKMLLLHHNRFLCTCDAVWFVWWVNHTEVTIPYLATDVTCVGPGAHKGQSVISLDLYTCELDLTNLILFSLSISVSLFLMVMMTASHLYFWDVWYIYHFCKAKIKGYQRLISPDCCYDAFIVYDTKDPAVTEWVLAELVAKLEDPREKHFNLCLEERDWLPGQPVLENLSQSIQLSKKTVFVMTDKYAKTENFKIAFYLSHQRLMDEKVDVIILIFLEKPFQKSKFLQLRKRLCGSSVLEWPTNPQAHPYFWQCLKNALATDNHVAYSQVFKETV
# Assay: HEK293-Blue-hTLR-7 cells assay (SEAP reporter, R848 stimulation)
# Assay type: cell-based
# Parameters: host or cells: HEK293 (HEK-Blue)
# Conditions: HEK293-Blue-hTLR7 cells, R848, 20 hrs; read-out: HEK/hTLR7 IC50
# Text: A stable HEK293-Blue-hTLR-7 cell line was purchased from InvivoGen (Cat.#: hkb-htlr7, San Diego, California, USA). These cells were originally designed for studying the stimulation of human TLR7 by monitoring the activation of NF-κB. A SEAP (secreted embryonic alkaline phosphatase) reporter gene was placed under the control of the IFN-β minimal promoter fused to five NF-κB and AP-1-binding sites. The SEAP was induced by activating NF-xB and AP-1 via stimulating HEK-Blue hTT,R7 cells with TLR7 ligands. Therefore, the reporter expression was declined by TLR7 antagonist under the stimulation of a ligand, such as R848 (Resiquimod), for incubation of 20 hrs. The cell culture supernatant SEAP reporter activity was determined using QUANTI-Blue™ kit (Cat.#: rep-qb1, Invivogen, San Diego, Ca, USA) at a wavelength of 640 nm, a detection medium that turns purple or blue in the presence of alkaline phosphatase.
# HEK293-Blue-hTLR7 cells were incubated at a density of 250,000-450,000 cells/mL in a volume of 170 µL in a 96-well plate in Dulbecco's Modified Eagle's medium (DMEM) containing 4.5 g/L glucose, 50 U/mL penicillin, […], […], 2 mM L-glutamine, 10% (v/v) heat-inactivated fetal bovine serum with addition of 20 µL test compound in a serial dilution in the presence of final DMSO at 1% and 10 µL of 20uM R848 in above DMEM, perform incubation under 37 °C in a CO2 incubator for 20 hrs. Then 20 µL of the supernatant from each well was incubated with 180 µL Quanti-blue substrate solution at 37 °C for 2 hrs and the absorbance was read at 620-655 nm using a spectrophotometer. The signaling pathway that TLR7 activation leads to downstream NF-xB activation has been widely accepted, and therefore similar reporter assay was modified for evaluating TLR7 antagonist.
row,Structure (SMILES),IC50 [nM]
1,"C[C@@H]1CN(c2ccc(C#N)c3ncccc23)C[C@H](CN2CCN(c3ccc4c(c3)CNC4)C(CO)C2)O1 (stereo partly drawn) [Example 13, 5-[(2S,6R)-2-[[3-(hydroxymethyl)-4-isoindolin-5-yl-piperazin-1-yl]methyl]-6-methyl-morpholin-4-yl]quinoline-8-carbonitrile]",57
2,"C[C@@H]1CN(c2ccc(C#N)c3ncccc23)C[C@H](CN2CCN(c3ccc4c(n3)[C@@H](C)NC4)CC2)O1 (single isomer, unassigned) [Example 65]",7
3,"C[C@@H]1Cc2cnc(N3CCN(C[C@H]4CN(c5ccc(C#N)c6nccnc56)C[C@@H](C)O4)CC3)cc2CN1 (single isomer, unassigned) [Example 82]",11
4,"C[C@@H]1CN(c2ccc(C#N)c3nccnc23)C[C@H](CN2CCN(c3cc4c(cn3)CCNC4)CC2)O1 [Example 80, 8-[(2R,6S)-2-methyl-6-[[4-(5,6,7,8-tetrahydro-2,6-naphthyridin-3-yl)piperazin-1-yl]methyl]morpholin-4-yl]quinoxaline-5-carbonitrile]",8
5,"C[C@@H]1CN(c2ccc(C#N)c3ncccc23)C[C@H](CN2CC3[C@H](C2)OCCN3c2ccc3c(n2)CCNC3)O1 (stereo in doubt) [Example 53, cis-5-[(2R,6S)-2-methyl-6-[[4-(5,6,7,8-tetrahydro-1,6-naphthyridin-2-yl)-2,3,4a,5,7,7a-hexahydropyrrolo[3,4-b][1,4]oxazin-6-yl]methyl]morpholin-4-yl]quinoline-8-carbonitrile]",3
6,"C[C@@H]1CN(c2ccc(C#N)c3ncccc23)C[C@H](CN2CCN(c3cc4c(cn3)CNC4)CC2)O1 [Example 18, 5-[(2S,6R)-2-[[4-(2,3-dihydro-1H-pyrrolo[3,4-c]pyridin-6-yl)piperazin-1-yl]methyl]-6-methyl-morpholin-4-yl] quinoline-8-carbonitrile]",9
7,"C[C@@H]1CN(c2ccc(C#N)c3ncccc23)C[C@H](CN2CCN(c3ccc4c(c3)CNC4)CC2CO)O1 (stereo partly drawn) [Example 15, 5-[(2S,6R)-2-[[2-(hydroxymethyl)-4-isoindolin-5-yl-piperazin-1-yl]methyl]-6-methyl-morpholin-4-yl]quinoline-8-carbonitrile]",73
8,"C[C@@H]1CN(c2ccc(C#N)c3ncccc23)C[C@H](CN2CCN(c3cc4c(cn3)[C@@H](C)NCC4)CC2)O1 (single isomer, unassigned) [Example 73]",17
9,"C[C@@H]1CN(c2ccc(C#N)c3ncccc23)C[C@H](CN2CCN(c3ccc4c(n3)CCN(C)C4)CC2)O1 [Example 34, 5-[(2R,6S)-2-methyl-6-[[4-(6-methyl-7,8-dihydro-5H-1,6-naphthyridin-2-yl)piperazin-1-yl]methyl]morpholin-4-yl]quinoline-8-carbonitrile]",18
10,"C[C@@H]1CN(c2ccc(C#N)c3ncccc23)C[C@H](CN2CCN(c3ccc4c(n3)CCNC4)C[C@H](O)C2)O1 (single isomer, unassigned) [Example 35A]",60
11,"COC1CNCc2ccc(N3CCN(C[C@H]4CN(c5ccc(C#N)c6ncccc56)C[C@@H](C)O4)CC3)cc21 (stereo partly drawn) [Example 58, 5-[(2S,6R)-2-[[4-(4-methoxy-1,2,3,4-tetrahydroisoquinolin-6-yl)piperazin-1-yl]methyl]-6-methyl-morpholin-4-yl]quinoline-8-carbonitrile]",16
12,"C[C@@H]1CN(c2ccc(C#N)c3ncccc23)C[C@H](CN2C[C@@H]3[C@@H](C2)OCCN3c2cnc3c(c2)CCNC3)O1 [Example 52, 5-[(2S,6R)-2-[[(4aR,7aR)-4-(5,6,7,8-tetrahydro-1,7-naphthyridin-3-yl)-2,3,4a,5,7,7a-hexahydropyrrolo[3,4-b][1,4]oxazin-6-yl]methyl]-6-methylmorpholin-4-yl]quinoline-8-carbonitrile]",< 3
13,"C[C@@H]1CN(c2ccc(C#N)c3ncccc23)C[C@H](CN2CCN(c3cc4c(cn3)CCN[C@H]4C)CC2)O1 (single isomer, unassigned) [Example 75]",8
14,"C[C@@H]1CN(c2ccc(C#N)c3ncccc23)C[C@H](CN2CCN(c3ccc4c(n3)CN[C@@H]4C)CC2)O1 (single isomer, unassigned) [Example 64]",12
15,"C[C@@H]1CN(c2ccc(C#N)c3ncccc23)C[C@H](CN2CCN(c3cc4c(cn3)CN[C@@H](C)C4)CC2)O1 (single isomer, unassigned) [Example 71]",24

# Second part, the molecule after the results:
row,IC50 [nM],Structure (SMILES)
1,11,"C[C@@H]1CN(c2ccc(C#N)c3ncccc23)C[C@H](CN2CCN(c3ncc4c(n3)CCNC4)CC2)O1 [Example 29, 5-[(2R,6S)-2-methyl-6-[[4-(5,6,7,8-tetrahydropyrido[4,3-d]pyrimidin-2-yl)piperazin-1-yl]methyl]morpholin-4-yl]quinoline-8-carbonitrile]"
2,9,"C[C@@H]1CN(c2ccc(C#N)c3ncccc23)C[C@H](CN2CC3(C2)CN(c2ccc4c(n2)CNCC4)CCO3)O1 [Example 45, 5-[(2R,6S)-2-methyl-6-[[8-(5,6,7,8-tetrahydro-1,7-naphthyridin-2-yl)-5-oxa-2,8-diazaspiro[3.5]nonan-2-yl]methyl]morpholin-4-yl]quinoline-8-carbonitrile]"
3,11,"C[C@@H]1CN(c2ccc(C#N)c3ncccc23)C[C@H](CN2CCN(c3ncc4c(n3)CNC4)CC2)O1 [Example 11, 5-[(2S,6R)-2-[[4-(6,7-dihydro-5Hpyrrolo[3,4-d]pyrimidin-2-yl)piperazin-1-yl]methyl]-6-methyl-morpholin-4-yl]quinoline-8-carbonitrile]"
4,< 3,"C[C@@H]1CN(c2ccc(C#N)c3ncccc23)C[C@H](CN2CCN(c3nccc4c3CCNC4)CC2)O1 [Example 62, 5-[(2R,6S)-2-methyl-6-[[4-(5,6,7,8-tetrahydro-2,6-naphthyridin-1-yl)piperazin-1-yl]methyl]morpholin-4-yl]quinoline-8-carbonitrile]"
5,12,"C[C@@H]1CN(c2ccc(C#N)c3ncccc23)C[C@H](CN2CC3(C2)CN(c2ncc4c(n2)CCNC4)CCO3)O1 [Example 51, 5-[(2R,6S)-2-methyl-6-[[8-(5,6,7,8-tetrahydropyrido[4,3-d]pyrimidin-2-yl)-5-oxa-2,8-diazaspiro[3.5]nonan-2-yl]methyl]morpholin-4-yl]quinoline-8-carbonitrile]"
6,65,"C[C@@H]1CN(c2ccc(C#N)c3ncccc23)C[C@H](CN2CCC(Nc3ccc4c(c3)CNC4)C2)O1 (stereo partly drawn) [Example 38, 5-[(2S,6R)-2-[[3-(isoindolin-5-ylamino)pyrrolidin-1-yl]methyl]-6-methyl-morpholin-4-yl]quinoline-8-carbonitrile]"
7,5,"C[C@@H]1CN(c2ccc(C#N)c3ncccc23)C[C@H](CN2CC3(C2)CN(c2cc4c(cn2)CCNC4)CCO3)O1 [Example 48, 5-[(2R,6S)-2-methyl-6-[[8-(5,6,7,8-tetrahydro-2,6-naphthyridin-3-yl)-5-oxa-2,8-diazaspiro[3.5]nonan-2-yl]methyl]morpholin-4-yl]quinoline-8-carbonitrile]"
